Assay results taken from US12391991B2, “Markers to predict macrocyclic lactone drug resistance in Dirofilaria immitis, the causative agent of heartworm disease” (priority 2013, dated 2025).
Entries after “also recorded” stand apart in the source; their conditions may differ. Read-outs that look alike come from different tables or passages of the source. Marks after values point to notes of the source that are not given here.

Experiments:
D. immitis microfilariae = tested on: D. immitis microfilariae; design: species or system Dirofilaria immitis; details: in vivo
[1] = tested on: D. immitis mf from dog Jd2009; assay type: cell-based, Dirofilaria immitis
[2] = tested on: D. immitis (LOE isolate case 5); design: species or system Dirofilaria immitis; details: in vivo
[3] = tested on: D. immitis microfilariae (LOE isolate case 4); details: in vivo
[4] = tested on: D. immitis Jd2009-2 isolate; design: species or system Dirofilaria immitis; details: in vivo
[5] = tested on: adult heartworms (D. immitis); design: species or system Dirofilaria immitis; details: in vivo
[6] = tested on: D. immitis (LOE isolate case 2); design: species or system Dirofilaria immitis; details: in vivo

Molecule: CC[C@H](C)[C@H]1O[C@]2(CC[C@@H]1C)C[C@@H]1C[C@@H](C/C=C(\C)[C@@H](O[C@H]3C[C@H](OC)[C@@H](O[C@H]4C[C@H](OC)[C@@H](O)[C@H](C)O4)[C@H](C)O3)[C@@H](C)/C=C/C=C3\CO[C@@H]4[C@H](O)C(C)=C[C@@H](C(=O)O1)[C@]34O)O2 [IVM, ivermectin]
- Knott's test result (D. immitis microfilariae): Knott's test +ve^a
- Microfilaremic status (D. immitis microfilariae): remained continually microfilaremic; also recorded: still microfilaremic
- Microfilariae concentration in blood (D. immitis microfilariae; po): ≥100^b mf/ml
- Sensitivity of mf to drug [1]: significantly less sensitive
- mf status during weekly dosing [2]: remained positive for mf
- Knott's test [3]: again positive
- Knott's tests [3]: both positive

Molecule: CO[C@H]1C[C@H](O[C@@H]2/C(C)=C/C[C@@H]3C[C@@H](C[C@]4(CC[C@H](C)[C@@H](C5CCCCC5)O4)O3)OC(=O)[C@@H]3C=C(C)/C(=N/O)[C@H]4OC/C(=C\C=C\[C@@H]2C)[C@]43O)O[C@@H](C)[C@@H]1O [SEL, selamectin]
- Outcome of monthly chemoprophylaxis as recommended [4]: at least one dog in groups of four to six dogs on these heartworm preventatives became infected

Molecule: CCN(CC)C(=O)N1CCN(C)CC1 [diethylcarbamazine]
- Blood smear [3]: no mf
- Side effects of the treatment [3]: No side effects

Molecule: Cl.Cl.NCCS[As](SCCN)c1ccc(Nc2nc(N)nc(N)n2)cc1 [melarsomine dihydrochloride]
- D. immitis antigen test [5]: negative
- Antigen test Name-result (+ve or −ve) ([5]; dihydrochloride): SNAP −ve^a; also recorded: DiroChek −ve^c; also recorded: PetChek −ve^a

Molecule: milbemycin oxime [MO]
- Knott's test result (D. immitis microfilariae): Knott's test +ve^a; also recorded: Knott's test +ve^c
- Microfilaremic status (D. immitis microfilariae): remained continually microfilaremic
- Microfilariae concentration in blood (D. immitis microfilariae): ≥100^b mf/ml
- Microfilariae in blood (D. immitis microfilariae): microfilariae were still present
- Heartworm antigen status [6]: heartworm antigen positive
- Outcome of monthly chemoprophylaxis as recommended [4]: at least one dog in groups of four to six dogs on these heartworm preventatives became infected
- Heartworm antigen test [2]: positive heartworm antigen test
- Knott's test ([3]; po): positive
